Reference: patent US20220264887A1, “Foam Formulations For Decontamination Of Surfaces With Minimum Wastewater” (The Trustees of Columbia University in the City of New York, priority 2020, published 2022)

Legend:
Assay type in all cases: physicochemical
[1] = Raman microscopy of hypochlorite degradation (ClO-/ClO4- peak ratio); settings: freshly prepared 1% solution in water
From the text: To monitor degradation of hypochlorite in the formulations (liquids), foams, and deposit residues, one can use Raman microscopy. Raman spectra were acquired using a Horiba Aramis confocal Raman microscope with a 10× objective (numerical aperture 0.25), a 1200 grooves/mm diffraction grating, and a 17-mW 633-nm HeNe laser without attenuation. The monochromator was calibrated before each set of measurements using the Si peak at 520.7 cm-1 of a Si wafer reference sample.
The degradation of hypochlorite ion (ClO—) was assessed by the intensity ratio of the main Raman peaks of ClO— at 715 cm-1 and perchlorate ClO4- at 937 cm-1 (FIG. 8). Perchlorate is a product of the final degradation of hypochlorite.

[2] = Hypochlorite degradation in formulation by chlorine strip; settings: after 24 hrs
From the text: (§1) The CMC values for these surfactants in the absence of hypochlorite, were as reported in the literature. […] A chlorine strip was used to determine hypochlorite degradation.

[3] = Surface tension / CMC of surfactants and mixtures by tensiometer, with and without hypochlorite; settings: for No hypochlorite (CMC): after 24 hours of preparation; for change of CMC value in the presence of hypochlorite: presence vs absence of hypochlorite
Method: Thus, the foam formulations were stable in terms of surfactants retaining their surface activity for the foam-deployment-on-surface application.
The surface tension values for pure surfactants and their mixtures—formulations—were determined in the presence and absence of hypochlorite (Table 1). […] The surface tension values for CAPB, taurate, SDS, and surfactin determined after 24 hours of preparation of these solutions, and in the absence and presence of hypochlorite are given in Table 1 and FIGS. 1, 2, and 3; Taurate was used for fundamental reasons and was not considered in preparing the final formulation(s). (The surface tension values were determined using a tensiometer.)
as §1

[4] = presence of hypochlorite 0.7-1 wt. % CL

With `[Na+].[O-]Cl` [hypochlorite, sodium hypochlorite] as the compound, how does the “ClO-/ClO4- Raman peak ratio” value [1] read?
The value was “about 2”.

What about the “fraction of hypochlorite already degraded” value ([1]; from peak ratio) of the same compound?
Its value is “about 30%”.

And the “decrease of hypochlorite concentration in the formulation” value [2]?
Its value is 30-40%.

What does the source list for `CCCCCCCCCCCCOS(=O)(=O)[O-].[Na+]` [SDS, Sodium dodecyl sulfate]?
Min surface tension ([3]; absence of hypochlorite): 28 mN/m; No hypochlorite (CMC) ([3]; absence of hypochlorite): 2.4 g/L; 0.7-1% hypochlorite (CMC) [3, 4]: 2.6 g/L; Min surface tension [3, 4]: 28 mN/m; change of CMC value in the presence of hypochlorite [3]: increased slightly

For `NCCS(=O)(=O)O` [Taurate], which “change of CMC value in the presence of hypochlorite” value [3] is on record?
The value was “increased slightly”.

Which results are given for cocamidopropyl betaine [CAPB]?
Min surface tension ([3]; absence of hypochlorite): 28 mN/m; No hypochlorite (CMC) ([3]; absence of hypochlorite): 0.3 g/L; 0.7-1% hypochlorite (CMC) [3, 4]: 0.31 g/L; Min surface tension [3, 4]: 28 mN/m; change of CMC value in the presence of hypochlorite [3]: a small decrease or no change
